Data as given in ChEMBL document CHEMBL3351580, “Pyrano-isochromanones as IL-6 inhibitors: synthesis, in vitro and in vivo antiarthritic activity” (J Med Chem, 2014).
Activity calls are given as the source filed them. No cut-off for these calls is given here.

Key:
Mus musculus [1] = test: Antiarthritic activity in DBA/1J mouse collagen-induced arthritis model assessed as reduction in anticollagen antibody IgG1 level at 3 to 30 mg/kg, po administered once daily for 49 days starting from onset of disease and measured after 14 days of disease onset by ELISA method; assay type: functional, organism-based
THP-1 [2] = test: Inhibition of LPS-induced nitric oxide production in human THP1 cells at 10 uM after 24 hrs by Griess assay; assay type: functional; settings: THP-1, 24 h
Mus musculus [3] = test: Antiarthritic activity in BALB/c mouse assessed as reduction in SRBC-induced blood IFNgamma level administered orally once daily for 14 days measured 4 hrs post last dose by ELISA method; assay type: functional, organism-based
Mus musculus [4] = test: Antiinflammatory activity in BALB/c mouse assessed as serum IL6 level at 10 mg/kg, po qd for 5 days followed by LPS challenge 1 hr after last compound dose on fifth day and measured 4 hrs post LPS challenge by ELISA method (reference value: 410 +/- 95 pg/mL); assay type: functional
THP-1 [5] = test: Inhibition of LPS-induced TNFalpha production in human THP1 cells after 24 hrs; assay type: functional, cell-based; settings: THP-1, 24 h
Mus musculus [6] = test: Antiarthritic activity in DBA/1J mouse collagen-induced arthritis model assessed as reduction in anticollagen antibody IgG2a level at 3 to 30 mg/kg, po administered once daily for 49 days starting from onset of disease and measured after 14 days of disease onset by ELISA method; assay type: functional, organism-based
[7] = Solubility in SGF solution; assay type: physicochemical
Mus musculus [8] = test: Antiarthritic activity in DBA/1J mouse collagen-induced arthritis model assessed as reduction in IL6 level at 3 to 30 mg/kg, po administered once daily for 49 days starting from onset of disease and measured after 3 to 49 days of disease onset by ELISA method; assay type: functional, organism-based
[9] = Therapeutic index, ratio of cytotoxic IC50 for human THP1 cells by MTT assay to IC50 for inhibition of LPS-induced IL6 production in human THP1 cells; assay type: cell-based, THP-1; settings: read-out: Ratio IC50
Mus musculus [10] = test: Antiarthritic activity in DBA/1J mouse collagen-induced arthritis model assessed as reduction in paw swelling at 30 mg/kg, po administered once daily for 49 days starting from onset of disease; assay type: functional; settings: 1176 h
Mus musculus [11] = test: Antiarthritic activity in DBA/1J mouse collagen-induced arthritis model assessed as reduction in anticollagen antibody IgG1 level at 3 to 30 mg/kg, po administered once daily for 49 days starting from onset of disease and measured after 49 days of disease onset by ELISA method; assay type: functional, organism-based
THP-1 [12] = test: Cytotoxicity against human THP1 cells after 24 hrs by MTT assay; assay type: cell-based; settings: THP-1, 24 h
[13] = Apparent permeability from apical to basolateral side in human Caco2 cells; assay type: ADME, cell-based; settings: Caco-2
Mus musculus [14] = test: Antiarthritic activity in BALB/c mouse assessed as reduction in SRBC-induced blood IL2 level administered orally once daily for 14 days measured 4 hrs post last dose by ELISA method; assay type: functional, organism-based
[15] = Inhibition of concanavalin A-induced cell proliferation of T cells (unknown origin) at 10 uM after 72 hrs by MTT assay; assay type: functional
Mus musculus [16] = test: Antiinflammatory activity in BALB/c mouse assessed as serum IL6 level at 100 mg/kg, po qd for 5 days followed by LPS challenge 1 hr after last compound dose on fifth day and measured 4 hrs post LPS challenge by ELISA method (reference value: 410 +/- 95 pg/mL); assay type: functional
Mus musculus [17] = test: Immunosuppressive activity in BALB/c mouse assessed as reduction in SRBC-induced humoral immunity by measuring IgM level at 3 to 30 mg/kg, po administered once daily for 14 days measured 4 hrs post last dose; assay type: functional, organism-based
[18] = Solubility in SIF solution; assay type: physicochemical
Mus musculus [19] = test: Antiarthritic activity in BALB/c mouse assessed as reduction in SRBC-induced blood IL4 level administered orally once daily for 14 days measured 4 hrs post last dose by ELISA method; assay type: functional, organism-based
Mus musculus [20] = test: Antiarthritic activity in DBA/1J mouse collagen-induced arthritis model assessed as reduction in anticollagen antibody IgG2a level at 3 to 30 mg/kg, po administered once daily for 49 days starting from onset of disease and measured after 49 days of disease onset by ELISA method; assay type: functional, organism-based
CYP2C19 = CYP2C19 (Homo sapiens, UniProt P33261); test: Inhibition of CYP2C19 (unknown origin) at 10 uM; assay type: ADME
Chain of CYP2C19 (P33261 whole entry): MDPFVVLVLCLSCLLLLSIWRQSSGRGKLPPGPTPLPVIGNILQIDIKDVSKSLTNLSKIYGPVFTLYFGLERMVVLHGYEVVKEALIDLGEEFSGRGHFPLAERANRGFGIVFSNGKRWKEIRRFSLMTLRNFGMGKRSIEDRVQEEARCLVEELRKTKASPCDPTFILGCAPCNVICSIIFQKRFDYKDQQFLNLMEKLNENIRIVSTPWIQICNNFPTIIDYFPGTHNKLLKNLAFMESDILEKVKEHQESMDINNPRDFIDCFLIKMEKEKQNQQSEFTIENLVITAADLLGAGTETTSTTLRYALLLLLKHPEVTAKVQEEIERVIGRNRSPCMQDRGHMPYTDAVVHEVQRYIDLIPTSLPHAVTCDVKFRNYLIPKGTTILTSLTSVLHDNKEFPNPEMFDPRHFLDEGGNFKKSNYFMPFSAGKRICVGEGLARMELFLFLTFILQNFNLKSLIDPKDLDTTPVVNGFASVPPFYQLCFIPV

Mus musculus [21] = test: Antiarthritic activity in DBA/1J mouse collagen-induced arthritis model assessed as reduction in IL-1beta level at 3 to 30 mg/kg, po administered once daily for 49 days starting from onset of disease and measured after 3 to 49 days of disease onset by ELISA method; assay type: functional, organism-based
[22] = Efflux ratio in human Caco2 cells; assay type: ADME, cell-based; settings: Caco-2
Mus musculus [23] = test: Antiinflammatory activity in BALB/c mouse assessed as serum nitric oxide level at 10 mg/kg, po qd for 5 days followed by LPS challenge 1 hr after last compound dose on fifth day and measured 4 hrs post LPS challenge by Griess assay (reference value: 6.95 +/- 1.81 uM); assay type: functional
Mus musculus [24] = test: Immunosuppressive activity in BALB/c mouse assessed as reduction in SRBC-induced DTH response at 3 to 30 mg/kg, po administered once daily for 14 days measured 4 hrs post last dose; assay type: functional, organism-based
Mus musculus [25] = test: Immunosuppressive activity in BALB/c mouse assessed as reduction in SRBC-induced humoral immunity by measuring IgG level at 3 to 30 mg/kg, po administered once daily for 14 days measured 4 hrs post last dose; assay type: functional, organism-based
[26] = biological target: Inhibitor of NF-kappa-B kinase (IKK) (Homo sapiens) (UniProt O14920+O15111+Q9Y6K9); test: Inhibition of IKKbeta expression in human THP1 cells at 20 to 100 uM by Western blotting method; assay type: functional, cell-based; settings: THP-1
B-cell = test: Inhibition of LPS-induced cell proliferation of B cells (unknown origin) at 10 uM after 72 hrs by MTT assay; assay type: functional
Mus musculus [27] = test: Antiinflammatory activity in BALB/c mouse assessed as serum TNFalpha level at 10 mg/kg, po qd for 5 days followed by LPS challenge 1 hr after last compound dose on fifth day and measured 4 hrs post LPS challenge by ELISA method (reference value: 717 +/- 218 pg/mL); assay type: functional
[28] = Solubility in PBS buffer; assay type: physicochemical
[29] = Solubility in water; assay type: physicochemical
CYP2C9 = CYP2C9 (Homo sapiens, UniProt P11712); test: Inhibition of CYP2C9 (unknown origin) at 10 uM; assay type: ADME
Chain of CYP2C9 (P11712 whole entry): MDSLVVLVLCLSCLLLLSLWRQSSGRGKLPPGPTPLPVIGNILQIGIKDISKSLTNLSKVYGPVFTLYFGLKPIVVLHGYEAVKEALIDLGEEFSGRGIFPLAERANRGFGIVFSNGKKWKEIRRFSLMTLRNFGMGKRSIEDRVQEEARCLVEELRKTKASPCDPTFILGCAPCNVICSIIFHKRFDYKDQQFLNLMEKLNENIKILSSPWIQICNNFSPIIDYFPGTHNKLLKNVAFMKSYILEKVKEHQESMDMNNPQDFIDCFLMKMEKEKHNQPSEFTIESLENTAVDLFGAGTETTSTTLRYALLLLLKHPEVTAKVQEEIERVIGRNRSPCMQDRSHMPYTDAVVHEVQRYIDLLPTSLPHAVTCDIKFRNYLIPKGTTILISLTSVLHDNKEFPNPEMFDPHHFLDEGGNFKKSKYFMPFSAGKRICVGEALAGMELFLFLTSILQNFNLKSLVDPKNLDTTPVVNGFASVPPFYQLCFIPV

Mus musculus [30] = test: Antiinflammatory activity in BALB/c mouse assessed as serum TNFalpha level at 100 mg/kg, po qd for 5 days followed by LPS challenge 1 hr after last compound dose on fifth day and measured 4 hrs post LPS challenge by ELISA method (reference value: 717 +/- 218 pg/mL); assay type: functional

Question: For `CCN(CC)Cc1c(O)c(OC)c(O)c2c1C(=O)O[C@@H]1[C@@H](O)[C@H](O)[C@@H](CO)O[C@@H]21`, which inhibition (Mus musculus [1]) is on record?
Answer: Active

Question: And the inhibition at 10 µM (THP-1 [2])?
Answer: 41%

Question: And the inhibition (Mus musculus [3])?
Answer: Dose-dependent effect

Question: What about the Activity (Mus musculus [4]) of the same molecule?
Answer: 102 pg/mL

Question: What about the IC50 (THP-1 [5]) of the same molecule?
Answer: 13.4 µM

Question: What about the inhibition (Mus musculus [6]) of the same molecule?
Answer: Active

Question: And the solubility [7]?
Answer: > 1500 µg/mL

Question: What about the inhibition (Mus musculus [8]) of the same molecule?
Answer: Active

Question: And the selectivity ratio [9]?
Answer: > 400

Question: And the inhibition in vivo at 30 mg/kg (Mus musculus [10])?
Answer: 28%

Question: What about the inhibition (Mus musculus [11]) of the same molecule?
Answer: Active

Question: What about the IC50 (THP-1 [12]) of the same molecule?
Answer: 110 µM

Question: And the Papp A→B [13]?
Answer: 0.72 ×10⁻⁶ cm/s

Question: And the inhibition (Mus musculus [14])?
Answer: Dose-dependent effect

Question: What about the inhibition at 10 µM [15] of the same molecule?
Answer: 53.7%

Question: And the Activity (Mus musculus [16])?
Answer: 275 pg/mL

Question: And the inhibition (Mus musculus [17])?
Answer: Active

Question: And the solubility [18]?
Answer: > 1500 µg/mL

Question: And the inhibition (Mus musculus [19])?
Answer: Dose-dependent effect

Question: And the inhibition (Mus musculus [20])?
Answer: Active

Question: What about the inhibition at 10 µM (CYP2C19) of the same molecule?
Answer: 6%

Question: What about the inhibition (Mus musculus [21]) of the same molecule?
Answer: Active

Question: And the efflux ratio [22]?
Answer: 2.2

Question: What about the Activity (Mus musculus [23]) of the same molecule?
Answer: 5 µM

Question: What about the inhibition (Mus musculus [24]) of the same molecule?
Answer: Active

Question: What about the inhibition (Mus musculus [25]) of the same molecule?
Answer: Active

Question: What about the inhibition [26] of the same molecule?
Answer: Active

Question: What about the inhibition at 10 µM (B-cell) of the same molecule?
Answer: 47.9%

Question: What about the Activity (Mus musculus [27]) of the same molecule?
Answer: 585 pg/mL

Question: And the solubility [28]?
Answer: > 1500 µg/mL

Question: And the solubility [29]?
Answer: > 1500 µg/mL

Question: What about the inhibition at 10 µM (CYP2C9) of the same molecule?
Answer: 32%

Question: And the Activity (Mus musculus [30])?
Answer: 388 pg/mL
